Like-named read-outs stand apart in the source and are kept apart here.
Legend:
[1] = tested on: Chinese hamster ovary cells; conditions: cut-off two to three times the negative control value (1.1%); both wells, automated and manual scoring
Text: A small quantity of a discovery drug candidate will be added to each well (the amount will usually be in the range of from 0 micrograms to about 500 micrograms and often in the range of from 0 micrograms to about 100 micrograms), desirably in a carrier medium containing DMSO (dimethyl sulfoxide), ethanol, methanol, acetonitrile, and/or water.
A mixture such as one containing amino acids (e.g., L-glutamine), serum (e.g., 5% fetal bovine serum), and glucose will be added to the wells to provide an aqueous growth medium for the cells. […] The presence of binucleated cells in the microwell at the end of the process is proof that nuclear division occurred in the presence of the discovery drug candidate.
After the cells become attached to the plate bottom, a chemical stimulus (agent) such as a discovery drug candidate can be added to each well. […]
If more than one micronuclei is found in a single cell, the cell is likely undergoing nuclear fragmentation as a result of apoptosis (programmed cell-death) and, accordingly, should be discarded from the final analysis. The micronuclei rate or frequency can be calculated as the number of micronucleated cells divided by the total number of nuclear division in a sample (the rate or frequency may be converted to a percentage by multiplying the rate or frequency by 100).

[2] = tested on: Chinese hamster ovary cells; conditions: stated as known; cited from earlier work
[3] = tested on: Chinese hamster ovary cells; experiment: In vitro micronucleus assay, non-Cytochalasin B protocol (mononucleated cells); conditions: cut-off double the DMSO value (micronuclei frequencies of 1.2% and higher are positive); manual or automated scoring; per run
Experimental: Accordingly, the method of this invention was also used to determine micronuclei frequency in non-cytokinesis-blocked cell samples (i.e., cell samples that were not treated with Cytochalasin B or the like) and, therefore, which were mononucleated.
In the second set of experiments, Chinese hamster ovary cells were used and the only difference in treatment and image acquisition protocol between runs in this set was the stimulus (i.e., chemical agent) with which the cells were incubated. Cytochalasin B was not used is this set of experiments (and, thus, the cells remained virtually all mononucleated throughout the experiment).

CO[C@@]12[C@H](COC(N)=O)C3=C(C(=O)C(C)=C(N)C3=O)N1C[C@@H]1N[C@@H]12 [Mitomycin C]
Response call (clastogenic/aneugenic) against negative control [1]: positive response | Known aneugenicity/clastogenicity (positive control) [2]: aneugenic/clastogenic | Response call (clastogenic/aneugenic) against negative control [3]: positive

From US20050002552A1, “Automated in vitro cellular imaging assays for micronuclei and other target objects” (Pfizer Inc, priority 2003, published 2005)
